According to the NIST ThermoML archive (doi:10.1021/acs.jced.6b00542):
± gives the expanded uncertainty stated by the source.

Test: xn = mol fraction of the nth substance listed
Details: for speed of sound: 100 kPa, Frequency=3 MHz, Sing-around technique in a fixed-path interferometer; for speed of sound / viscosity / mass density: Liquid; for viscosity / mass density: 102 kPa; for viscosity: Concentric cylinders viscometry; for mass density: Vibrating tube method; for surface tension liquid-gas: 294.5 K, Pendant drop shape

CCCCc1ccccc1 [butylbenzene] + CCCCCCCCCCCC
Details	mass density [kg/m3]	speed of sound [m/s]	viscosity [mPa·s]
293.15 K, x1 = 0.1241	758.28 ± 0.15	1300.2 ± 1	1.38 ± 0.01
293.15 K, x1 = 0.2414	768.11 ± 0.15	1302.8 ± 0.9	1.31 ± 0.01
293.15 K, x1 = 0.3524	778.18 ± 0.14	1306.4 ± 0.9	1.24 ± 0.01
293.15 K, x1 = 0.4583	788.6 ± 0.14	1310.3 ± 0.9	1.19 ± 0.01
293.15 K, x1 = 0.5593	799.56 ± 0.13	1315.4 ± 0.9	1.15 ± 0.01
293.15 K, x1 = 0.6552	810.7 ± 0.13	1321.3 ± 0.9	1.11 ± 0.01
293.15 K, x1 = 0.7575	823.88 ± 0.12	1328.6 ± 0.9	1.08 ± 0.01
293.15 K, x1 = 0.8349	834.67 ± 0.12	1335.5 ± 0.9	1.06 ± 0.01
293.15 K, x1 = 0.9194	847.33 ± 0.12	1343.9 ± 0.9	1.04 ± 0.01
293.15 K, x1 = 1	860.51 ± 0.11	1353.7 ± 0.9	1.05 ± 0.01
303.15 K, x1 = 0.1241	750.96 ± 0.16	1262 ± 1	1.17 ± 0.01
303.15 K, x1 = 0.2414	760.73 ± 0.15	1264.8 ± 0.9	1.12 ± 0.01
303.15 K, x1 = 0.3524	770.74 ± 0.14	1268.4 ± 0.9	1.07 ± 0.01
303.15 K, x1 = 0.4583	781.11 ± 0.14	1272.3 ± 0.9	1.03 ± 0.01
303.15 K, x1 = 0.5593	791.97 ± 0.13	1277.3 ± 0.9	0.996 ± 0.007
303.15 K, x1 = 0.6552	803.03 ± 0.13	1283.1 ± 0.9	0.968 ± 0.007
303.15 K, x1 = 0.7575	816.12 ± 0.12	1290.4 ± 0.9	0.941 ± 0.007
303.15 K, x1 = 0.8349	826.84 ± 0.12	1297 ± 0.9	0.925 ± 0.007
303.15 K, x1 = 0.9194	839.4 ± 0.12	1305.4 ± 0.9	0.909 ± 0.007
303.15 K, x1 = 1	852.49 ± 0.11	1314.9 ± 0.9	0.91 ± 0.007
313.15 K, x1 = 0.1241	743.61 ± 0.16	1224.4 ± 0.9	1.01 ± 0.01
313.15 K, x1 = 0.2414	753.32 ± 0.15	1227.2 ± 0.9	0.968 ± 0.007
313.15 K, x1 = 0.3524	763.26 ± 0.15	1230.8 ± 0.9	0.931 ± 0.007
313.15 K, x1 = 0.4583	773.56 ± 0.14	1234.7 ± 0.9	0.9 ± 0.007
313.15 K, x1 = 0.5593	784.35 ± 0.14	1239.7 ± 0.9	0.873 ± 0.007
313.15 K, x1 = 0.6552	795.32 ± 0.13	1245.4 ± 0.9	0.85 ± 0.007
313.15 K, x1 = 0.7575	808.33 ± 0.13	1252.5 ± 0.9	0.829 ± 0.007
313.15 K, x1 = 0.8349	818.96 ± 0.12	1259.1 ± 0.9	0.816 ± 0.006
313.15 K, x1 = 0.9194	831.44 ± 0.12	1267.3 ± 0.9	0.804 ± 0.006
313.15 K, x1 = 1	844.43 ± 0.11	1276.6 ± 0.9	0.801 ± 0.006
323.15 K, x1 = 0.1241	736.23 ± 0.16	1187.2 ± 0.9	0.879 ± 0.007
323.15 K, x1 = 0.2414	745.87 ± 0.15	1190 ± 0.9	0.846 ± 0.007
323.15 K, x1 = 0.3524	755.75 ± 0.15	1193.7 ± 0.9	0.817 ± 0.007
323.15 K, x1 = 0.4583	765.97 ± 0.14	1197.6 ± 0.9	0.793 ± 0.006
323.15 K, x1 = 0.5593	776.69 ± 0.14	1202.5 ± 0.9	0.771 ± 0.006
323.15 K, x1 = 0.6552	787.58 ± 0.13	1208.1 ± 0.9	0.753 ± 0.006
323.15 K, x1 = 0.7575	800.5 ± 0.13	1215.2 ± 0.9	0.736 ± 0.006
323.15 K, x1 = 0.8349	811.06 ± 0.13	1221.6 ± 0.8	0.725 ± 0.006
323.15 K, x1 = 0.9194	823.44 ± 0.12	1229.7 ± 0.8	0.716 ± 0.006
323.15 K, x1 = 1	836.34 ± 0.11	1238.7 ± 0.8	0.713 ± 0.006
333.15 K, x1 = 0.1241	728.82 ± 0.16	1150.5 ± 0.9	0.771 ± 0.007
333.15 K, x1 = 0.2414	738.39 ± 0.16	1153.4 ± 0.9	0.745 ± 0.006
333.15 K, x1 = 0.3524	748.19 ± 0.15	1157 ± 0.9	0.722 ± 0.006
333.15 K, x1 = 0.4583	758.34 ± 0.15	1161 ± 0.9	0.703 ± 0.006
333.15 K, x1 = 0.5593	768.98 ± 0.14	1165.8 ± 0.9	0.686 ± 0.006
333.15 K, x1 = 0.6552	779.81 ± 0.14	1171.3 ± 0.9	0.671 ± 0.006
333.15 K, x1 = 0.7575	792.63 ± 0.13	1178.4 ± 0.8	0.657 ± 0.006
333.15 K, x1 = 0.8349	803.11 ± 0.13	1184.6 ± 0.8	0.649 ± 0.006
333.15 K, x1 = 0.9194	815.41 ± 0.12	1192.5 ± 0.8	0.64 ± 0.006
333.15 K, x1 = 1	828.21 ± 0.12	1201.4 ± 0.8	0.636 ± 0.006
343.15 K, x1 = 0.1241	721.2 ± 0.3	–	0.683 ± 0.006
343.15 K, x1 = 0.2414	730.8 ± 0.3	–	0.662 ± 0.006
343.15 K, x1 = 0.3524	740.5 ± 0.2	–	0.643 ± 0.006
343.15 K, x1 = 0.4583	750.7 ± 0.2	–	0.627 ± 0.006
343.15 K, x1 = 0.5593	761.2 ± 0.2	–	0.614 ± 0.006
343.15 K, x1 = 0.6552	771.9 ± 0.2	–	0.602 ± 0.006
343.15 K, x1 = 0.7575	784.7 ± 0.2	–	0.59 ± 0.006
343.15 K, x1 = 0.8349	795.1 ± 0.2	–	0.583 ± 0.006
343.15 K, x1 = 0.9194	807.2 ± 0.2	–	0.576 ± 0.006
343.15 K, x1 = 1	819.9 ± 0.2	–	0.571 ± 0.006
353.15 K, x1 = 0.1241	713.7 ± 0.3	–	0.608 ± 0.006
353.15 K, x1 = 0.2414	723.2 ± 0.3	–	0.591 ± 0.006
353.15 K, x1 = 0.3524	732.9 ± 0.2	–	0.576 ± 0.006
353.15 K, x1 = 0.4583	743 ± 0.2	–	0.563 ± 0.006
353.15 K, x1 = 0.5593	753.4 ± 0.2	–	0.552 ± 0.006
353.15 K, x1 = 0.6552	764 ± 0.2	–	0.542 ± 0.006
353.15 K, x1 = 0.7575	776.7 ± 0.2	–	0.532 ± 0.006
353.15 K, x1 = 0.8349	787 ± 0.2	–	0.526 ± 0.006
353.15 K, x1 = 0.9194	799.1 ± 0.2	–	0.521 ± 0.006
353.15 K, x1 = 1	811.7 ± 0.2	–	0.516 ± 0.006
363.15 K, x1 = 0.1241	706.1 ± 0.3	–	0.546 ± 0.006
363.15 K, x1 = 0.2414	715.6 ± 0.3	–	0.532 ± 0.006
363.15 K, x1 = 0.3524	725.1 ± 0.3	–	0.519 ± 0.006
363.15 K, x1 = 0.4583	735.2 ± 0.2	–	0.508 ± 0.006
363.15 K, x1 = 0.5593	745.5 ± 0.2	–	0.499 ± 0.005
363.15 K, x1 = 0.6552	756 ± 0.2	–	0.491 ± 0.005
363.15 K, x1 = 0.7575	768.6 ± 0.2	–	0.483 ± 0.005
363.15 K, x1 = 0.8349	778.9 ± 0.2	–	0.478 ± 0.005
363.15 K, x1 = 0.9194	790.9 ± 0.2	–	0.473 ± 0.005
363.15 K, x1 = 1	803.4 ± 0.2	–	0.469 ± 0.005
373.15 K, x1 = 0.1241	698.5 ± 0.3	–	0.493 ± 0.006
373.15 K, x1 = 0.2414	707.8 ± 0.3	–	0.481 ± 0.005
373.15 K, x1 = 0.3524	717.3 ± 0.3	–	0.471 ± 0.005
373.15 K, x1 = 0.4583	727.2 ± 0.2	–	0.461 ± 0.005
373.15 K, x1 = 0.5593	737.5 ± 0.2	–	0.454 ± 0.005
373.15 K, x1 = 0.6552	747.9 ± 0.2	–	0.447 ± 0.005
373.15 K, x1 = 0.7575	760.5 ± 0.2	–	0.44 ± 0.005
373.15 K, x1 = 0.8349	770.7 ± 0.2	–	0.436 ± 0.005
373.15 K, x1 = 0.9194	782.6 ± 0.2	–	0.432 ± 0.005
373.15 K, x1 = 1	795 ± 0.2	–	0.43 ± 0.005

Details	surface tension liquid-gas [mN/m]
x1 = 0.1241	25.4 ± 0.4
x1 = 0.2414	26 ± 0.4
x1 = 0.3524	26.3 ± 0.4
x1 = 0.4583	26.2 ± 0.4
x1 = 0.5593	26.7 ± 0.4
x1 = 0.6552	27 ± 0.4
x1 = 0.7575	27.5 ± 0.4
x1 = 0.8349	27.7 ± 0.4
x1 = 0.9194	28.4 ± 0.4
